IC50 data for eight compounds are collected here from ChEMBL document CHEMBL3621176, “Inhibitors of the Renal Outer Medullary Potassium Channel” (ACS Med Chem Lett, 2015).

The IC50 is the concentration at which inhibition is half-maximal. Higher therefore signals weaker potency in that assay.

The test deals with T1, ATP-sensitive inward rectifier potassium channel 1 (Homo sapiens, UniProt P48048).
T1 sequence (P48048 whole entry): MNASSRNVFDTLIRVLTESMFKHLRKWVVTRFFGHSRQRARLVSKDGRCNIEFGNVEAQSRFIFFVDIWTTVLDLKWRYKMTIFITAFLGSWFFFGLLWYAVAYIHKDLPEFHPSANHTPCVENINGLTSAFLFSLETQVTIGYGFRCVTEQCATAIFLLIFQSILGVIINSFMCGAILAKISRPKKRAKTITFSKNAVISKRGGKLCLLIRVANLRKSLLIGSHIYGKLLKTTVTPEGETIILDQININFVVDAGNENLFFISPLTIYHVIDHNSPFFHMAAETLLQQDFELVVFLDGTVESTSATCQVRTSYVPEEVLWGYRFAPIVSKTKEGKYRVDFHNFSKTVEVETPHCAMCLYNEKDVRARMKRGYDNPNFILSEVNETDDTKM
The experiment in a line: Inhibition of human Kir1.1 expressed in HEK293 cells by thallium flux assay. In kind it is cell-based.
Take `Cc1c([C@@H](N)CN2CCC3(CC2)CC(=O)N(c2ccc(C#N)cn2)C3)ccc2c1COC2=O`: the IC50 came out at 14 nM.
`Cc1cc(C#N)cnc1N1CCC2(CCN(C[C@H](O)c3ccc4c(c3C)COC4=O)CC2)C1` displayed an IC50 of 20 nM.
`Cc1nc(N2CCC3(CCN(C[C@H](O)c4ccc5c(c4C)COC5=O)CC3)C2)ccc1C#N` returned an IC50 of 14 nM.
In the case of `Cc1c([C@@H](O)CN2CCC3(CC2)CCN(c2cnc(C#N)cn2)CC3)ccc2c1COC2=O` it was 9 nM; in that of `Cc1cc(N2CCC3(CCN(C[C@H](O)c4ccc5c(c4C)COC5=O)CC3)C2)ncc1C#N`, 17 nM.
In the case of `Cc1c([C@@H](O)CN2CCC3(CC2)CCN(c2ccc(C#N)nn2)CC3)ccc2c1COC2=O` it was 13 nM; in that of `Cc1c([C@@H](O)CN2CCC3(CC2)CCN(c2ccc(C#N)cc2)C3)ccc2c1COC2=O`, 15 nM; in that of `Cc1c([C@@H](O)CN2CCC3(CC2)CCN(c2ncc(C#N)cn2)CC3)ccc2c1COC2=O`, 14 nM.
